Experimental findings from US11498919B2, “Azaindolylpyridone and diazaindolylpyridone compounds” (Sprint Bioscience AB, priority 2017, dated 2022) are described below.

In general, IC50 refers to the concentration that inhibits the measured activity by half.

In one experiment the target is Vps34 enzyme (Homo sapiens (Human), UniProt Q8NEB9). Description: Vps34 Biochemical Assay (Adapta kinase assay, TR-FRET). The conditions noted are these: 20 μM ATP and 200 μM PI:PS in substrate mix, 1 h at room temperature, read-out: Median IC50 nM Adapta. Here is the method:
Dilution series of compounds of the invention were prepared in DMSO at 100 times the final assay concentration (n1=n0/3 in 10 points). The compounds were further diluted to 4 times the assay concentration in assay buffer (Life technologies buffer Q, PV5125, diluted 5 times supplemented with 2 mM DTT and 2 mM MnCl2). 2.5 μl of the diluted compounds were added to a 384 well assay plate followed by 2.5 μl of 16.5 nM Vps34 enzyme (Life technologies, PV5126). Enzyme and compounds were pre-incubated at rt for 15 min. Then 5 μl of substrate mix containing 20 μM ATP (Life technologies, PV3227) and 200 μM PI:PS substrate (Life technologies, PV5122) in assay buffer was added to the wells containing compound and enzyme. Mixing was performed by pipetting several times. The reaction was incubated at room temperature for 1 h. Then 5 μl stop-detection mix, prepared as described in the Adapta kinase assay kit instructions (Life technologies, PV5099) containing Adapta Eu-anti-ADP antibody (2.3 nM), Alexa Fluor 647 ADP tracer (9 nM) and EDTA (30 mM) in TR-FRET buffer, was added to quench the reaction. Mixing was performed by pipetting several times. The assay plate was then incubated at room temperature for 30 min and read with Artemis micro plate reader. Percent inhibition of the compounds as compared to DMSO treated control samples was calculated. By the use of Dotmatics software compound concentration versus percent inhibition was fitted to generate IC50 values.

Experiment [1] concerns Human osteosarcoma cells (HOS) stably expressing GFP-LC3. Description: High Content Screening Autophagy Assay (GFP-LC3 foci). It is filed as cell-based. The conditions noted are these: autophagy in HOS cells, activated with KU-0063794 500 nM plus Bafilomycin A1 5 nM, 6 hours, LC3-GFP foci area per cell, read-out: Median IC50 (nM) Cellular assay. Here is the method: Human osteosarcoma cells (HOS) stably expressing a Green Fluorescent Protein (GFP) tagged LC3 (GFP-LC3) were used to determine the inhibitory effect on autophagy of proprietary compounds. For that purpose, autophagy was activated by using the mTOR inhibitor KU-0063794 at 500 nM in the presence of Bafilomycin A1 (Sigma-Aldrich) at 5 nM. Shortly, cells were plated overnight in clear bottom 96-well plates in DMEM—High Modified media (Hi-Clone Cat #SH30285.01). At the start of the experiment, the media was removed and replaced with fresh media containing the mTOR inhibitor, Bafilomycin A1 and the vehicle or a test compound as indicated. After 6 hours the media was removed, cells were washed twice with ice-cold phosphate buffered saline (PBS) and fixed with 4% paraformaldehyde for 20 minutes at room temperature. Then the cells were washed twice with ice-cold PBS before adding Hoechst 33342 at 1 μg/ml in PBS for nuclear staining. After incubation overnight at 4° C., cells were washed once with PBS to remove the excess of dye and 100 μl of PBS was added to each well. Images were acquired at 20× magnification, 6 images per well, using the ImageXpress automated microscope (Molecular Devices Inc.) and analyzed with MetaXpress software to identify LC3-GFP foci. Foci area per cell values were used to generate dose response curves and IC50 values were calculated using the non-linear fitting analysis in GraphPad Prism software. […] The results of the assay are shown in Table 2 (Median IC50 nM HOS-LC3).

Chain of Vps34 enzyme (Q8NEB9 whole entry): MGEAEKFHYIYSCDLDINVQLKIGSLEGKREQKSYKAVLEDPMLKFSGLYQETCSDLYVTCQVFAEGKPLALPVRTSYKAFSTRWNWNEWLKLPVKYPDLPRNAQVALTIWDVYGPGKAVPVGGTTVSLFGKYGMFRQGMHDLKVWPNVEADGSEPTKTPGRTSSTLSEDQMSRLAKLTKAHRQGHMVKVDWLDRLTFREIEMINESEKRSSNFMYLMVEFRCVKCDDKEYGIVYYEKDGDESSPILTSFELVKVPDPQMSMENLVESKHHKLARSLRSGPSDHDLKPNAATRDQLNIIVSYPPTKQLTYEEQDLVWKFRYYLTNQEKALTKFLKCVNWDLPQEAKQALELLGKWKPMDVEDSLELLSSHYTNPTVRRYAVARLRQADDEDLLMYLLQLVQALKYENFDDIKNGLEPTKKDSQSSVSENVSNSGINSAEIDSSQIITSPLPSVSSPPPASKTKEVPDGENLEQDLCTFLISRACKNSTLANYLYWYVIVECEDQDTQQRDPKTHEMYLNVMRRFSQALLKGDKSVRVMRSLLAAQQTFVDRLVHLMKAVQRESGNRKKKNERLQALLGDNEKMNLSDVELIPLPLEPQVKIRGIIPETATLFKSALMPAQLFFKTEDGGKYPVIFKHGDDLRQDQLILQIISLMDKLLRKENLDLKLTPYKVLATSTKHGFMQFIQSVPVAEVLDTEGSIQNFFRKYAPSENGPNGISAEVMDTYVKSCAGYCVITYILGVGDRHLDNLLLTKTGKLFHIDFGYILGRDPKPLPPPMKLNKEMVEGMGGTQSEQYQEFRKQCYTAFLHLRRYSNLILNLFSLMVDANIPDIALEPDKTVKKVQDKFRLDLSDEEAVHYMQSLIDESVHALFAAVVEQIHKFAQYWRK

As to `O=c1cc(-c2ccnc3[nH]ccc23)cc(-c2ccccc2C(F)(F)F)[nH]1` [Example 4, 4-(1H-pyrrolo[2,3-b]pyridin-4-yl)-6-[2-(trifluoromethyl)phenyl]-1H-pyridin-2-one], the IC50 is less than 5 nM on Vps34 enzyme and 665 nM in experiment [1].

For `Cc1cnccc1-c1cc(-c2ccnc3[nH]ccc23)cc(=O)[nH]1` [Example 6, 6-(3-Methyl-4-pyridyl)-4-(1H-pyrrolo[2,3-b]pyridin-4-yl)-1H-pyridin-2-one], the IC50 on Vps34 enzyme was determined as 20 nM; in experiment [1], 2570 nM.

Take `O=c1cc(-c2ccnc3[nH]ccc23)cc(N2CCCC2c2ccccc2)[nH]1` (centres unmarked) [Example 8, 6-(2-phenylpyrrolidin-1-yl)-4-(1H-pyrrolo[2,3-b]pyridin-4-yl)-1H-pyridin-2-one]: the half-maximal inhibitory concentration (IC50) at Vps34 enzyme amounted to 10 nM; in experiment [1], 366 nM.

With `Cc1cc2c(-c3cc(-c4cccnc4)[nH]c(=O)c3)ccnc2[nH]1` [Example 12, 4-(2-Methyl-1H-pyrrolo[2,3-b]pyridin-4-yl)-6-(3-pyridyl)-1H-pyridin-2-one], the IC50 on Vps34 enzyme came out at 24 nM; in experiment [1] it was 554 nM.

For the molecule `Cc1cc2c(-c3cc(N4CCOCC4)[nH]c(=O)c3)ccnc2[nH]1` [Example 16, 4-(2-Methyl-1H-pyrrolo[2,3-b]pyridin-4-yl)-6-morpholino-1H-pyridin-2-one], the IC50 on Vps34 enzyme turned out to be 12 nM.

As to `O=c1cc(-c2ccnc3[nH]c(-c4cnco4)cc23)cc(-c2ccccc2Cl)[nH]1` [Example 23, 6-(2-Chlorophenyl)-4-(2-oxazol-5-yl-1H-pyrrolo[2,3-b]pyridin-4-yl)-1H-pyridin-2-one], the results for the IC50 (on Vps34 enzyme; in experiment [1]) were 8 nM and 44 nM, respectively.

For the molecule `O=c1cc(-c2ccnc3[nH]c(-c4cccnc4)cc23)cc(-c2ccccc2Cl)[nH]1` [Example 27, 6-(2-Chlorophenyl)-4-[2-(3-pyridyl)-1H-pyrrolo[2,3-b]pyridin-4-yl]-1H-pyridin-2-one], the IC50 is less than 5 nM at Vps34 enzyme and 16 nM in experiment [1].

As for `Cc1cc2c(-c3cc(-c4ccccc4Cl)[nH]c(=O)c3)ccnc2[nH]1` [Example 29, 6-(2-Chlorophenyl)-4-(2-methyl-1H-pyrrolo[2,3-b]pyridin-4-yl)-1H-pyridin-2-one], the IC50 was less than 5 nM on Vps34 enzyme and 54 nM in experiment [1].

Consider `Cc1cc2c(-c3cc(N4CCCCC4C(F)(F)F)[nH]c(=O)c3)ccnc2[nH]1` (centres unmarked) [Example 36, 4-(2-Methyl-1H-pyrrolo[2,3-b]pyridin-4-yl)-6-[2-(trifluoromethyl)-1-piperidyl]-1H-pyridin-2-one], for which the figures for the half-maximal inhibitory concentration (IC50) (on Vps34 enzyme; in experiment [1]) were less than 5 nM and 62 nM, respectively.

As to `O=c1cc(-c2ccnc3[nH]ccc23)cc(N2CCCCC2C(F)(F)F)[nH]1` (centres unmarked) [Example 37, 4-(1H-pyrrolo[2,3-b]pyridin-4-yl)-6-[2-(trifluoromethyl)-1-piperidyl]-1H-pyridin-2-one], the IC50 at Vps34 enzyme was less than 5 nM; in experiment [1], 145 nM.

As to `O=c1cc(-c2ccnc3[nH]ccc23)cc(N2CCOCC2C(F)(F)F)[nH]1` (centres unmarked) [Example 42, 4-(1H-pyrrolo[2,3-b]pyridin-4-yl)-6-[3-(trifluoromethyl)morpholin-4-yl]-1H-pyridin-2-one], the results for the IC50 (at Vps34 enzyme; in experiment [1]) were less than 5 nM and 473 nM, respectively.

For `O=c1cc(-c2ccnc3[nH]c(-c4cccc(C(F)(F)F)c4)cc23)cc(N2CCOCC2C(F)(F)F)[nH]1` (centres unmarked) [Example 45, 6-[3-(Trifluoromethyl)morpholin-4-yl]-4-[2-[3-(trifluoromethyl)phenyl]-1H-pyrrolo[2,3-b]pyridin-4-yl]-1H-pyridin-2-one], on Vps34 enzyme, the half-maximal inhibitory concentration (IC50) was determined as 34 nM.

For `Cc1ccc(-c2cc3c(-c4cc(N5CCOCC5C(F)(F)F)[nH]c(=O)c4)ccnc3[nH]2)s1` (centres unmarked) [Example 48, 4-[2-(5-Methyl-2-thienyl)-1H-pyrrolo[2,3-b]pyridin-4-yl]-6-[3-(trifluoromethyl)morpholin-4-yl]-1H-pyridin-2-one], the half-inhibitory concentration (IC50) on Vps34 enzyme is less than 5 nM.

`O=c1cc(-c2ccnc3[nH]ncc23)cc(N2CCCCC2C(F)(F)F)[nH]1` (centres unmarked) [Example 49, 4-(1H-pyrazolo[3,4-b]pyridin-4-yl)-6-[2-(trifluoromethyl)-1-piperidyl]-1H-pyridin-2-one]: the IC50 at Vps34 enzyme is less than 5 nM; in experiment [1], 62 nM.

Take `O=c1cc(-c2ccnc3[nH]c(-c4cnc(C(F)(F)F)nc4)cc23)cc(N2CCCCC2C(F)(F)F)[nH]1` (centres unmarked) [Example 52, 6-[2-(Trifluoromethyl)-1-piperidyl]-4-[2-[2-(trifluoromethyl)pyrimidin-5-yl]-1H-pyrrolo[2,3-b]pyridin-4-yl]-1H-pyridin-2-one]: at Vps34 enzyme, the IC50 was less than 5 nM.

For `O=c1cc(-c2ccnc3[nH]c(-c4ccc(C(F)(F)F)nc4)cc23)cc(N2CCCCC2C(F)(F)F)[nH]1` (centres unmarked) [Example 55, 6-[2-(Trifluoromethyl)-1-piperidyl]-4-[2-[6-(trifluoromethyl)-3-pyridyl]-1H-pyrrolo[2,3-b]pyridin-4-yl]-1H-pyridin-2-one], the IC50 at Vps34 enzyme is less than 5 nM.

With `O=c1cc(-c2ccnc3[nH]c(-c4cncc(C(F)(F)F)c4)cc23)cc(N2CCCCC2C(F)(F)F)[nH]1` (centres unmarked) [Example 58, 6-[2-(Trifluoromethyl)-1-piperidyl]-4-[2-[5-(trifluoromethyl)-3-pyridyl]-1H-pyrrolo[2,3-b]pyridin-4-yl]-1H-pyridin-2-one], the IC50 at Vps34 enzyme was determined as 7 nM.

In the case of `O=c1cc(-c2ccnc3[nH]ccc23)cc(N2CCN(S(=O)(=O)Cc3ccc(F)cc3)CC2C(F)(F)F)[nH]1` (centres unmarked) [Example 65, 6-[4-[(4-fluorophenyl)methylsulfonyl]-2-(trifluoromethyl)piperazin-1-yl]-4-(1H-pyrrolo[2,3-b]pyridin-4-yl)-1H-pyridin-2-one], the IC50 on Vps34 enzyme is less than 5 nM; in experiment [1] it was 176 nM.

For the molecule `CCS(=O)(=O)N1CCN(c2cc(-c3ccnc4[nH]ccc34)cc(=O)[nH]2)C(C(F)(F)F)C1` (centres unmarked) [Example 71, 6-[4-Ethylsulfonyl-2-(trifluoromethyl)piperazin-1-yl]-4-(1H-pyrrolo[2,3-b]pyridin-4-yl)-1H-pyridin-2-one], the IC50 is less than 5 nM on Vps34 enzyme and 308 nM in experiment [1].

In the case of `CCS(=O)(=O)N1CCN(c2cc(-c3ccnc4[nH]c(C5CC5)cc34)cc(=O)[nH]2)C(C(F)(F)F)C1` (centres unmarked) [Example 72, 4-(2-Cyclopropyl-1H-pyrrolo[2,3-b]pyridin-4-yl)-6-[4-ethylsulfonyl-2-(trifluoromethyl)piperazin-1-yl]-1H-pyridin-2-one], the IC50 at Vps34 enzyme is less than 5 nM; in experiment [1], 19 nM.

Regarding `CCS(=O)(=O)N1CCN(c2cc(-c3ccnc4[nH]c(C)cc34)cc(=O)[nH]2)C(C(F)(F)F)C1` (centres unmarked) [Example 73, 6-[4-Ethylsulfonyl-2-(trifluoromethyl)piperazin-1-yl]-4-(2-methyl-1H-pyrrolo[2,3-b]pyridin-4-yl)-1H-pyridin-2-one], the IC50 is less than 5 nM on Vps34 enzyme and 28 nM in experiment [1].

Consider `CCS(=O)(=O)N1CCN(c2cc(-c3ccnc4[nH]c(C#N)cc34)cc(=O)[nH]2)C(C(F)(F)F)C1` (centres unmarked) [Example 74, 4-[2-[4-Ethylsulfonyl-2-(trifluoromethyl)piperazin-1-yl]-6-oxo-1H-pyridin-4-yl]-1H-pyrrolo[2,3-b]pyridine-2-carbonitrile], for which the IC50 was less than 5 nM on Vps34 enzyme and 89 nM in experiment [1].

Consider `O=c1cc(-c2ccnc3[nH]c(C4CC4)cc23)cc(-c2ccccc2C(F)(F)F)[nH]1` [Example 79, 4-(2-cyclopropyl-1H-pyrrolo[2,3-b]pyridin-4-yl)-6-[2-(trifluoromethyl)phenyl]-1H-pyridin-2-one], for which the concentration for half-maximal inhibition (IC50) on Vps34 enzyme is less than 5 nM.

Regarding `N#Cc1cc2c(-c3cc(-c4ccccc4C(F)(F)F)[nH]c(=O)c3)ccnc2[nH]1` [Example 80, 4-[2-Oxo-6-[2-(trifluoromethyl)phenyl]-1H-pyridin-4-yl]-1H-pyrrolo[2,3-b]pyridine-2-carbonitrile], the IC50 on Vps34 enzyme is less than 5 nM.

Take `CS(=O)(=O)N1CCN(c2cc(-c3ccnc4[nH]ncc34)cc(=O)[nH]2)C(C(F)(F)F)C1` (centres unmarked) [Example 88, 6-[4-Methylsulfonyl-2-(trifluoromethyl)piperazin-1-yl]-4-(1H-pyrazolo[3,4-b]pyridin-4-yl)-1H-pyridin-2-one]: the IC50 at Vps34 enzyme is less than 5 nM.
